Data from article PMC11946255, “Extraction of Cannabinoids and Terpenes from Hemp Flowers and Leaves (Cannabis sativa L., Futura 75): Chemical Profiling and Evaluation of Anticancer Properties” (Molecules, 2025).
Values after ≈ are worked out from the molar mass of the structure shown.

Legend:
[1] = tested on: normal breast epithelial MCF-10A cells; assay: Cytotoxicity, SRB assay, MCF-10A; assay type: cell-based, human; conditions: 72 h incubation, non-tumorigenic cells, mean ± SD; for IC50: Homo sapiens, MCF-10A
Method: (§1) Two extracts, Futu 1 and Futu 2, were selected for the study of their antiproliferative activity against six human cancer cell lines: biphenotypic B myelomonocytic leukemia (MV4-11), lung carcinoma (A549), colon adenocarcinoma (HT-29), gastric adenocarcinoma (AGS), and breast carcinomas (MCF-7 (ER+) and MDA-MB-468 (TNBC)). Additionally, their cytotoxicity and potential safety for use were assessed on normal human breast epithelial cells (MCF-10A). This study aimed to determine the effectiveness of these extracts in inhibiting cancer cell growth while ensuring minimal toxicity to normal cells. The first extract, Futu 1, contained the highest amount of cannabinoid fraction (51.57%) among all tested extracts, and the terpene fraction consisted of 9.8% monoterpenes and 90.2% of sesquiterpenes. Futu 1 was obtained using pressurized extraction with the following process parameters: a pressure of 1 bar, a solvent mixture of hexane/ethanol (7:3, v/v), and a temperature of 25 °C. The second extract, Futu 2, was selected for its higher monoterpene content (19.6%) in the terpene fraction in comparison to sesquiterpenes (80.4%) and its 49.49% content of cannabinoids. This extract was also obtained via pressurized extraction, using a pressure of 1 bar, a solvent mixture of hexane/isopropanol (7:3, v/v), and a temperature of −55 °C. After 72 h of incubation of cancer and normal cells with cannabinoids and the extracts Futu 1 or Futu 2, antiproliferative activity was assessed using the MTT assay (for MV4-11) or the SRB assay. The percentage of cell growth inhibition was calculated and IC50 values were determined (Table 3).
(§2) Human cell lines: biphenotypic B myelomonocytic leukemia MV4-11, gastric adenocarcinoma AGS, colon adenocarcinoma HT-29, and normal breast MCF-10A cells were obtained from American Type Culture Collection (ATCC) in the United States; lung carcinoma A549 and breast cancer MCF-7 were obtained from European Collection of Authenticated Cell Cultures (ECACC). Human breast cancer MDA-MB-468 cells were obtained from Leibniz Institute DSMZ (German Collection of Microorganisms and Cell Cultures). All the cell lines were maintained at the Hirszfeld Institute of Immunology and Experimental Therapy, PAS, Wroclaw, Poland. MV4-11 and MDA-MB-468 cells were cultured in RPMI 1640 medium (IIET PAS, Wrocław, Poland) with 1.0 mM sodium pyruvate (only MV4-11) and 10% (MV4-11) or 20% (MDA-MB-468) fetal bovine serum (FBS) (all from Merck, Darmstadt, Germany). A549, HT-29, and AGS cells were cultured in RPMI 1640 + Opti-MEM (1:1) medium (IIET PAS, Wrocław, Poland, and Gibco, London, UK) supplemented with 5% FBS (Merck, Darmstadt, Germany) and 1.0 mM sodium pyruvate (only HT-29). The MCF-7 cells were cultured in Eagle medium (IIET PAS, Wrocław, Poland) supplemented with 8 microg/mL of insulin and 1% MEM NON-Essential amino acid (all Merck, Darmstadt, Germany). Normal breast epithelial MCF-10A cells were cultured in the HAM’S F-12 medium, which was supplemented with 10% Horse Serum (Gibco, London, UK), 20 ng/mL EGFh, 10 µg/mL insulin, and 0.5 µg/mL Hydrocortisone and 0.05 mg/mL Cholera Toxin from Vibrio cholerae were from Merck, Darmstadt, Germany.
The antiproliferative activity of cannabinoids (in concentrations of 1 mg/mL in methanol) and the plant extracts named Futu1 and Futu2 (the solutions were prepared by dissolving the substance in methanol to a concentration of 50 mg/mL) were tested against 6 cancer cell lines. Their cytotoxicity was also tested against one normal cell line. The tested mixtures of compounds were diluted in a culture medium to reach the final concentrations. Before adding the tested compounds (24 h prior), the cells were plated in 384-well plates (Greiner Bio-One) at a density of 1 × 10^3 (A549), 1.5 × 10^3 (MDA-MB-468, HT-29, MCF-7), or 2 × 10^3 (AGS, MCF-10A) cells per well. The MV4-11 cells were plated in 96-well plates (Corning) at a density of 5 × 10^3 cells per well. […]

[2] = tested on: colon adenocarcinoma HT-29; assay: Antiproliferative activity, SRB assay, HT-29; assay type: cell-based, human; conditions: for IC50 HT-29 / IC50: 72 h incubation, SRB, mean ± SD; for Calculated Selectivity Index SI HT-29: SI = IC50 MCF-10A / IC50 HT-29; for IC50: Homo sapiens, HT-29
[3] = tested on: biphenotypic B myelomonocytic leukemia MV4-11; assay: Antiproliferative activity, MTT assay, MV4-11; assay type: cell-based, human; conditions: 2 μg/mL, 72 h, compared to untreated control cells
Method: as §1
as §2, with “The MCF-7 cells were cultured in Eagle medium (IIET PAS, Wrocław, Poland) supplemented with 8 microg/mL of insulin and 1% MEM NON-Essential amino acid (all Merck, Darmstadt, Germany). Normal breast epithelial MCF-10A cells were cultured in the HAM’S F-12 medium, which was supplemented with 10% Horse Serum (Gibco, London, UK), 20 ng/mL EGFh, 10 µg/mL insulin, and 0.5 µg/mL Hydrocortisone and 0.05 mg/mL Cholera Toxin from Vibrio cholerae were from Merck, Darmstadt, Germany.” left out

[4] = tested on: breast cancer MCF-7 (ER+); assay: Antiproliferative activity, SRB assay, MCF-7; assay type: cell-based, human; conditions: for IC50 MCF-7 / IC50: 72 h incubation, SRB, mean ± SD; for Calculated Selectivity Index SI MCF-7: SI = IC50 MCF-10A / IC50 MCF-7; for IC50: Homo sapiens, MCF7
[5] = tested on: gastric adenocarcinoma AGS; assay: Antiproliferative activity, SRB assay, AGS; assay type: cell-based, human; conditions: for IC50 AGS / IC50: 72 h incubation, SRB, mean ± SD; for Calculated Selectivity Index SI AGS: SI = IC50 MCF-10A / IC50 AGS; for IC50: Homo sapiens
lung carcinoma A549 = assay: Antiproliferative activity, SRB assay, A549; assay type: cell-based, human; conditions: for IC50 A549 / IC50: 72 h incubation, SRB, mean ± SD; for Calculated Selectivity Index SI A549: SI = IC50 MCF-10A / IC50 A549; for IC50: Homo sapiens, A549
[6] = tested on: lung (A549), colon (HT-29), gastric (AGS), and breast (MCF-7, ER+) cancer cell lines; assay: Antiproliferative activity, SRB assay, summarised over the cancer cell lines; assay type: cell-based; conditions: Homo sapiens; 72 h, range across the four cancer cell lines
Method: as §1, with “The second extract, Futu 2, was selected for its higher monoterpene content (19.6%) in the terpene fraction in comparison to sesquiterpenes (80.4%) and its 49.49% content of cannabinoids. This extract was also obtained via pressurized extraction, using a pressure of 1 bar, a solvent mixture of hexane/isopropanol (7:3, v/v), and a temperature of −55 °C.” left out, “3). […]” for “3).”

CCCCCc1cc(O)c2c(c1)OC(C)(C)[C@@H]1CCC(C)=C[C@@H]21 (relative stereo) [THC, (–)-trans-Δ^9-tetrahydrocannabinol]
IC50 MCF-10A [1]: 11.13 ± 0.72 µg/mL (≈ 35.4 µM)
IC50 HT-29 [2]: 3.73 ± 0.59 µg/mL (≈ 11.9 µM)
Calculated Selectivity Index SI HT-29 [2]: 2.98
Stimulation of MV4-11 cell growth [3]: 180%
IC50 MCF-7 [4]: 8.4 ± 1.26 µg/mL (≈ 26.7 µM)
Calculated Selectivity Index SI MCF-7 [4]: 1.33
IC50 AGS [5]: 6.35 ± 1.35 µg/mL (≈ 20.2 µM)
Calculated Selectivity Index SI AGS [5]: 1.75
IC50 A549 (lung carcinoma A549): 3.94 ± 0.44 µg/mL (≈ 12.5 µM)
Calculated Selectivity Index SI A549 (lung carcinoma A549): 2.82

CCCCCc1cc(O)c2c(c1)OC(C)(CCC=C(C)C)C=C2 (centres unmarked) [CBC, cannabichromene]
IC50 [1]: 10.5 ± 0.46 µg/mL (≈ 33.5 µM)
IC50 [2]: 5.94 ± 1.86 µg/mL (≈ 18.9 µM)
Calculated Selectivity Index SI HT-29 [2]: 1.77
Stimulation of MV4-11 cell growth [3]: 140%
IC50 [4]: 7.56 ± 1.52 µg/mL (≈ 24 µM)
Calculated Selectivity Index SI MCF-7 [4]: 1.39
IC50 [5]: 5.53 ± 0.88 µg/mL (≈ 17.6 µM)
Calculated Selectivity Index SI AGS [5]: 1.9
IC50 (lung carcinoma A549): 3.26 ± 0.2 µg/mL (≈ 10.4 µM)
Calculated Selectivity Index SI A549 (lung carcinoma A549): 3.23

C=C(C)[C@@H]1CCC(C)=C[C@H]1c1c(O)cc(CCCCC)cc1O [CBD, cannabidiol]
IC50 [1]: 10.6 ± 0.63 µg/mL (≈ 33.5 µM)
IC50 [2]: 3.04 ± 0.52 µg/mL (≈ 9.67 µM)
Calculated Selectivity Index SI HT-29 [2]: 3.47
Stimulation of MV4-11 cell growth [3]: 140%
IC50 [4]: 3.67 ± 0.55 µg/mL (≈ 11.7 µM)
Calculated Selectivity Index SI MCF-7 [4]: 2.87
IC50 [6]: 2.87 to 3.74 µg/mL (≈ 9.13 to 11.9 µM)
IC50 [5]: 3.74 ± 0.28 µg/mL (≈ 11.9 µM)
Calculated Selectivity Index SI AGS [5]: 2.82
IC50 (lung carcinoma A549): 2.87 ± 0.24 µg/mL (≈ 9.13 µM)
Calculated Selectivity Index SI A549 (lung carcinoma A549): 3.68

C=C(C)[C@@H]1CCC(C)=C[C@H]1c1c(O)cc(CCC)cc1O [CBDV]
IC50 MCF-10A [1]: 11.24 ± 0.26 µg/mL (≈ 39.2 µM)
IC50 HT-29 [2]: 3.6 ± 0.4 µg/mL (≈ 12.6 µM)
Calculated Selectivity Index SI HT-29 [2]: 3.12
IC50 MCF-7 [4]: 8.43 ± 2.05 µg/mL (≈ 29.4 µM)
Calculated Selectivity Index SI MCF-7 [4]: 1.33
IC50 AGS [5]: 8.4 ± 1.98 µg/mL (≈ 29.3 µM)
Calculated Selectivity Index SI AGS [5]: 1.34
IC50 A549 (lung carcinoma A549): 6.22 ± 2.26 µg/mL (≈ 21.7 µM)
Calculated Selectivity Index SI A549 (lung carcinoma A549): 1.81

CCCCCc1cc(O)c(C/C=C(\C)CCC=C(C)C)c(O)c1 [CBG, cannabigerol]
IC50 [1]: 10.7 ± 0.71 µg/mL (≈ 33.9 µM)
IC50 [2]: 10 ± 1.14 µg/mL (≈ 31.7 µM)
Calculated Selectivity Index SI HT-29 [2]: 1.07
IC50 [4]: 7.43 ± 1.43 µg/mL (≈ 23.5 µM)
Calculated Selectivity Index SI MCF-7 [4]: 1.45
IC50 [5]: 6.11 ± 1.31 µg/mL (≈ 19.3 µM)
Calculated Selectivity Index SI AGS [5]: 1.76
IC50 (lung carcinoma A549): 3.71 ± 0.46 µg/mL (≈ 11.7 µM)
Calculated Selectivity Index SI A549 (lung carcinoma A549): 2.89

CCCCCc1cc(O)c2c(c1)OC(C)(C)c1ccc(C)cc1-2 [CBN, cannabinol]
IC50 [1]: 10.8 ± 0.68 µg/mL (≈ 34.8 µM)
IC50 [2]: 6.07 ± 2.11 µg/mL (≈ 19.6 µM)
Calculated Selectivity Index SI HT-29 [2]: 1.78
Stimulation of MV4-11 cell growth [3]: 140%
IC50 [4]: 5.79 ± 1.79 µg/mL (≈ 18.7 µM)
Calculated Selectivity Index SI MCF-7 [4]: 1.87
IC50 [5]: 6.18 ± 0.98 µg/mL (≈ 19.9 µM)
Calculated Selectivity Index SI AGS [5]: 1.75
IC50 (lung carcinoma A549): 3.3 ± 0.15 µg/mL (≈ 10.6 µM)
Calculated Selectivity Index SI A549 (lung carcinoma A549): 3.27
